Test results taken from publication PMC9856672, “SGC-CAMKK2-1: A Chemical Probe for CAMKK2” (Cells, 2023).

How the values were obtained:
FLT3(N841I) = target: T1, FLT3(N841I) (Homo sapiens, UniProt P36888, N841I); assay: KINOMEscan binding assay at 1 μM, FLT3(N841I); conditions: Compound Concentration 1000 nM; read-out: Percent Control
T1 construct: purchased Eurofins DiscoverX KINOMEscan
Description: (§1) Supplement cells-12-00287-s001.zip/File S2. KinomeScan data for the CAMKK2 probe and negative control.xlsx, sheet "SGC-CAMKK2-1N" | column: Percent Control

FLT3(R834Q) = target: T2, FLT3(R834Q) (Homo sapiens, UniProt P36888, R834Q); assay: KINOMEscan at 1 μM, FLT3(R834Q); assay type: binding; conditions: 1000 nM, read-out: Percent Control
T2 construct: purchased Eurofins DiscoverX KINOMEscan
Description: as §1

CDK9 = target: T3, CDK9 (Homo sapiens, UniProt P50750); assay: KINOMEscan at 1 μM, CDK9; assay type: binding; conditions: 1000 nM, read-out: Percent Control
T3 construct: purchased Eurofins DiscoverX KINOMEscan
Description: as §1

[1] = target: T4, RSK2(Kin.Dom.2-C-terminal) (Homo sapiens, UniProt P51812); assay: KINOMEscan at 1 μM, RSK2(Kin.Dom.2-C-terminal); assay type: binding; conditions: 1000 nM, read-out: Percent Control
T4 construct: RSK2(Kin.Dom.2-C-terminal); purchased Eurofins DiscoverX KINOMEscan
Description: as §1

[2] = target: T5, TYK2(JH1domain-catalytic) (Homo sapiens, UniProt P29597); assay: KINOMEscan at 1 μM, TYK2(JH1domain-catalytic); assay type: binding; conditions: 1000 nM, read-out: Percent Control
T5 construct: TYK2(JH1domain-catalytic); purchased Eurofins DiscoverX KINOMEscan
T5 sequence (P29597 871-1187 limits assumed): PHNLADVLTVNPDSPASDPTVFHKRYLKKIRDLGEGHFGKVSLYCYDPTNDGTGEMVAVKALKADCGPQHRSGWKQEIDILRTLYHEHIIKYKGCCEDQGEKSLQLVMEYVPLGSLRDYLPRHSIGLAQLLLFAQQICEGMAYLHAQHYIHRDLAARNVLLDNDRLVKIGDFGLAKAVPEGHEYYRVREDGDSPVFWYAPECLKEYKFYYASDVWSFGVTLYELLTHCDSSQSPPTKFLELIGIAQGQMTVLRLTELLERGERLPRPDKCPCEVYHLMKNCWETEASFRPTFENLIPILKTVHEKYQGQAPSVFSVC
Description: as §1

KIT(V559D) = target: T6, KIT(V559D) (Homo sapiens, UniProt P10721, V559D); assay: KINOMEscan at 1 μM, KIT(V559D); assay type: binding; conditions: 1000 nM, read-out: Percent Control
T6 construct: purchased Eurofins DiscoverX KINOMEscan
Description: as §1

PRKR = target: T7, PRKR (Homo sapiens, UniProt P19525); assay: KINOMEscan at 1 μM, PRKR; assay type: binding; conditions: 1000 nM, read-out: Percent Control
T7 construct: purchased Eurofins DiscoverX KINOMEscan
Description: as §1

IRAK4 = target: T8, IRAK4 (Homo sapiens, UniProt Q9NWZ3); assay: KINOMEscan at 1 μM, IRAK4; assay type: binding; conditions: 1000 nM, read-out: Percent Control
T8 construct: purchased Eurofins DiscoverX KINOMEscan
Description: as §1

PFTK1 = target: T9, PFTK1 (Homo sapiens, UniProt O94921); assay: KINOMEscan binding assay at 1 μM, PFTK1; conditions: Compound Concentration 1000 nM; read-out: Percent Control
T9 construct: purchased Eurofins DiscoverX KINOMEscan
Description: as §1

INSRR = target: T10, INSRR (Homo sapiens, UniProt P14616); assay: KINOMEscan at 1 μM, INSRR; assay type: binding; conditions: 1000 nM, read-out: Percent Control
T10 construct: purchased Eurofins DiscoverX KINOMEscan
T10 sequence (P14616 27-1297): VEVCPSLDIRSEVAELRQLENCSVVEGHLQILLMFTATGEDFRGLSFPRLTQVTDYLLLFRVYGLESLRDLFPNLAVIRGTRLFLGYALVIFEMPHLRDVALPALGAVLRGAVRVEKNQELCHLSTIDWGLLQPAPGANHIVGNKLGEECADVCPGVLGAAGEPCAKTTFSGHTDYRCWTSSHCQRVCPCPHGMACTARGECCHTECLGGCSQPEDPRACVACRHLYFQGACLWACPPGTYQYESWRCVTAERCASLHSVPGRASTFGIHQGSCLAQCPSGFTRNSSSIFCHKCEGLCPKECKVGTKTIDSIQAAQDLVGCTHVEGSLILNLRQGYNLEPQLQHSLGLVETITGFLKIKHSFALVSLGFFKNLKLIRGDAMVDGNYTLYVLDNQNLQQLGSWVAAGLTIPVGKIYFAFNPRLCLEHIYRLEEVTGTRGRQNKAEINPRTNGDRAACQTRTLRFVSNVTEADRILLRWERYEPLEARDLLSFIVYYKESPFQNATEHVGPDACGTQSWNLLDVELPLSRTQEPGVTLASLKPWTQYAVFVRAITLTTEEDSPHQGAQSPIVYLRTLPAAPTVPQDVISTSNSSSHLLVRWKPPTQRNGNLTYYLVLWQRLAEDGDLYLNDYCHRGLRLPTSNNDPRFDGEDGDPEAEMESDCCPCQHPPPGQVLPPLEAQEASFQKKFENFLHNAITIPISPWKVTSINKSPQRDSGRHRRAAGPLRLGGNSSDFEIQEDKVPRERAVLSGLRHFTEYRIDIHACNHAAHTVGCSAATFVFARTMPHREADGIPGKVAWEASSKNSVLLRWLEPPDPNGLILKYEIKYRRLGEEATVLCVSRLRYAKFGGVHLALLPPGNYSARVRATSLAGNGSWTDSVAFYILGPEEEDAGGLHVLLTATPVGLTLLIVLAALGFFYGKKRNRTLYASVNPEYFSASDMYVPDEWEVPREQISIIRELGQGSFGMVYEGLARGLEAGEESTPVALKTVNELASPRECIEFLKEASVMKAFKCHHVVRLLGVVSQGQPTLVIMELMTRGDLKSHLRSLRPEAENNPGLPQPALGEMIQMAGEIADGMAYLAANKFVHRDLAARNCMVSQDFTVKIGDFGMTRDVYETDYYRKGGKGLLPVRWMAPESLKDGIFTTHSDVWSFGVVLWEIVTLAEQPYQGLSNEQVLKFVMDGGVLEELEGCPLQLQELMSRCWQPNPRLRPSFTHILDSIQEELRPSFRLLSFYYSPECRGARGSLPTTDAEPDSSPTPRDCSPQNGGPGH
Description: as §1

CDKL3 = target: T11, CDKL3 (Homo sapiens, UniProt Q8IVW4); assay: KINOMEscan at 1 μM, CDKL3; assay type: binding; conditions: 1000 nM, read-out: Percent Control
T11 construct: purchased Eurofins DiscoverX KINOMEscan
T11 sequence (Q8IVW4 whole entry): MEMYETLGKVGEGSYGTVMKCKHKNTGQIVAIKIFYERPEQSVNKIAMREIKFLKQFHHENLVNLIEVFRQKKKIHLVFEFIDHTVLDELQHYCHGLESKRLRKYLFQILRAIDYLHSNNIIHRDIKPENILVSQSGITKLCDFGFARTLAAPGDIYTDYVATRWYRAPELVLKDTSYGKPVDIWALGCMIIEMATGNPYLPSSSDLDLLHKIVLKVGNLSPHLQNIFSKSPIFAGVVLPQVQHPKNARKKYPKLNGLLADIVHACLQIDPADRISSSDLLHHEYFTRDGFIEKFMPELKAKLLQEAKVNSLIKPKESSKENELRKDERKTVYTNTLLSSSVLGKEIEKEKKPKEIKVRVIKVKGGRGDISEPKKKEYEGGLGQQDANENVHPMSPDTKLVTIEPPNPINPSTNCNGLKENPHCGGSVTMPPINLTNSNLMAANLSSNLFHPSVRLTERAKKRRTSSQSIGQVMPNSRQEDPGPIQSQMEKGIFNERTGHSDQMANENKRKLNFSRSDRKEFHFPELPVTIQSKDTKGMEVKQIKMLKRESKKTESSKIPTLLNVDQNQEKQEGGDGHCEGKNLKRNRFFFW
Description: as §1

AKT2 = target: T12, AKT2 (Homo sapiens, UniProt P31751); assay: KINOMEscan at 1 μM, AKT2; assay type: binding; conditions: 1000 nM, read-out: Percent Control
T12 construct: purchased Eurofins DiscoverX KINOMEscan
T12 sequence (P31751 whole entry): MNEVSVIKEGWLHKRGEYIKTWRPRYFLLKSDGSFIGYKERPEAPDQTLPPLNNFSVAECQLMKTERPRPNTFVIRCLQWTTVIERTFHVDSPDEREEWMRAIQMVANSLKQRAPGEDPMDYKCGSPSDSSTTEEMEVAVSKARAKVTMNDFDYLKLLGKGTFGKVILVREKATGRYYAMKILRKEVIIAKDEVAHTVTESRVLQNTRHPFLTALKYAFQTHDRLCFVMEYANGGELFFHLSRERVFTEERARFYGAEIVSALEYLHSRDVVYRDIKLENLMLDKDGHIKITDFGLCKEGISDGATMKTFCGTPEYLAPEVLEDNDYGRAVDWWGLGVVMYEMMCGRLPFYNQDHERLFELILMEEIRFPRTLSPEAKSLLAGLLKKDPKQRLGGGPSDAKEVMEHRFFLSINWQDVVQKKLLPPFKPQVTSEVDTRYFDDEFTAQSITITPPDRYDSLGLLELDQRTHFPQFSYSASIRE
Description: as §1

PDGFRB = target: T13, PDGFRB (Homo sapiens, UniProt P09619); assay: KINOMEscan at 1 μM, PDGFRB; assay type: binding; conditions: 1000 nM, read-out: Percent Control
T13 construct: purchased Eurofins DiscoverX KINOMEscan
Description: as §1

FLT3(D835V) = target: T14, FLT3(D835V) (Homo sapiens, UniProt P36888, D835V); assay: KINOMEscan 1 μM, FLT3(D835V); assay type: binding; conditions: 1000 nM; Entrez FLT3; read-out: Percent Control
T14 construct: purchased Eurofins DiscoverX KINOMEscan
Description: (§2) Supplement cells-12-00287-s001.zip/File S2. KinomeScan data for the CAMKK2 probe and negative control.xlsx, sheet "SGC-CAMKK2-1" | column: Percent Control

FYN = target: T15, FYN (Homo sapiens, UniProt P06241); assay: KINOMEscan 1 μM, FYN; assay type: binding; conditions: 1000 nM; Entrez FYN; read-out: Percent Control
T15 construct: purchased Eurofins DiscoverX KINOMEscan
Description: as §2

MINK = target: T16, MINK (Homo sapiens, UniProt Q8N4C8); assay: KINOMEscan 1 μM, MINK; assay type: binding; conditions: 1000 nM; Entrez MINK1; read-out: Percent Control
T16 construct: purchased Eurofins DiscoverX KINOMEscan
Description: as §2

FLT3(ITD,F691L) = assay: KINOMEscan 1 μM, FLT3(ITD,F691L); assay type: binding, human; conditions: 1000 nM; Entrez FLT3
Description: as §2

MAP3K2 = target: T17, MAP3K2 (Homo sapiens, UniProt Q9Y2U5); assay: KINOMEscan 1 μM, MAP3K2; assay type: binding; conditions: 1000 nM; Entrez MAP3K2; read-out: Percent Control
T17 construct: purchased Eurofins DiscoverX KINOMEscan
T17 sequence (Q9Y2U5 whole entry): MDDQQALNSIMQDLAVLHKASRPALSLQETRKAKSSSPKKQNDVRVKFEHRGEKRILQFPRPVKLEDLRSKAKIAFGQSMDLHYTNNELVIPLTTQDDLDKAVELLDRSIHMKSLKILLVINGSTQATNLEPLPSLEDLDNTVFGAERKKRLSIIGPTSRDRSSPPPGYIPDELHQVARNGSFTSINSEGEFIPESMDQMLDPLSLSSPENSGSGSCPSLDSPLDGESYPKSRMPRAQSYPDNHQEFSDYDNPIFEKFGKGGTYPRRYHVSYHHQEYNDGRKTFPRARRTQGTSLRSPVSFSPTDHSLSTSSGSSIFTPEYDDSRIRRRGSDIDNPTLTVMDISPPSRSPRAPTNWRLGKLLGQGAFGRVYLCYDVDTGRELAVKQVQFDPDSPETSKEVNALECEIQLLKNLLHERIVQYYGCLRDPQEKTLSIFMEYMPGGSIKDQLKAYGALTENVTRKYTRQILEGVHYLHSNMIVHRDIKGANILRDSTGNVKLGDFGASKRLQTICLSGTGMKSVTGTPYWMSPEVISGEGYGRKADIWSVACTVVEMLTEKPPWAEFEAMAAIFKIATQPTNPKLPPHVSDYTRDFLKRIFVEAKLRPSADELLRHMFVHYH
Description: as §2

MAP4K4 = target: T18, MAP4K4 (Homo sapiens, UniProt O95819); assay: KINOMEscan 1 μM, MAP4K4; assay type: binding; conditions: 1000 nM; Entrez MAP4K4; read-out: Percent Control
T18 construct: purchased Eurofins DiscoverX KINOMEscan
Description: as §2

MEK6 = target: T19, MEK6 (Homo sapiens, UniProt P52564); assay: KINOMEscan 1 μM, MEK6; assay type: binding; conditions: 1000 nM; Entrez MAP2K6; read-out: Percent Control
T19 construct: purchased Eurofins DiscoverX KINOMEscan
Description: as §2

YANK2 = target: T20, YANK2 (Homo sapiens, UniProt Q9NY57); assay: DiscoverX KINOMEscan binding assay at 1 μM, YANK2; conditions: YANK2 (STK32B); Compound Concentration 1000 nM; read-out: Percent Control
T20 construct: purchased Eurofins DiscoverX KINOMEscan
T20 sequence (Q9NY57 whole entry): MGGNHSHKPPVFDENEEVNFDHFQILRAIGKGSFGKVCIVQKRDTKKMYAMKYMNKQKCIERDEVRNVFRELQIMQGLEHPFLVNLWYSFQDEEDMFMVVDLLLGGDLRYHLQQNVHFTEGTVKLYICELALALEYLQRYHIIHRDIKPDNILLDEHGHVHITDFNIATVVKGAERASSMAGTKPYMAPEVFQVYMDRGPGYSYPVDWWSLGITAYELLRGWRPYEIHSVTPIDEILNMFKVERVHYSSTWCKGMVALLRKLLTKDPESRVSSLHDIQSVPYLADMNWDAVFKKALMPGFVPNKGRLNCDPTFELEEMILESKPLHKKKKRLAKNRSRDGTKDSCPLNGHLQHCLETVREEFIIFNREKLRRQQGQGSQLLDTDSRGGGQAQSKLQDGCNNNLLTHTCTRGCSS
Description: as §2

STK33 = target: T21, STK33 (Homo sapiens, UniProt Q9BYT3); assay: KINOMEscan 1 μM, STK33; assay type: binding; conditions: 1000 nM; Entrez STK33; read-out: Percent Control
T21 construct: purchased Eurofins DiscoverX KINOMEscan
Description: as §2

EGFR(G719C) = target: T22, EGFR(G719C) (Homo sapiens, UniProt P00533, G719C); assay: KINOMEscan 1 μM, EGFR(G719C); assay type: binding; conditions: 1000 nM; Entrez EGFR; read-out: Percent Control
T22 construct: purchased Eurofins DiscoverX KINOMEscan
Description: as §2

MAK = target: T23, MAK (Homo sapiens, UniProt P20794); assay: KINOMEscan 1 μM, MAK; assay type: binding; conditions: 1000 nM; Entrez MAK; read-out: Percent Control
T23 construct: purchased Eurofins DiscoverX KINOMEscan
Description: as §2

PRKCE = target: T24, PRKCE (Homo sapiens, UniProt Q02156); assay: KINOMEscan 1 μM, PRKCE; assay type: binding; conditions: 1000 nM; Entrez PRKCE; read-out: Percent Control
T24 construct: purchased Eurofins DiscoverX KINOMEscan
Description: as §2

DMPK = target: T25, DMPK (Homo sapiens, UniProt Q09013); assay: KINOMEscan 1 μM, DMPK; assay type: binding; conditions: 1000 nM; Entrez DMPK; read-out: Percent Control
T25 construct: purchased Eurofins DiscoverX KINOMEscan
Description: as §2

PAK1 = target: T26, PAK1 (Homo sapiens, UniProt Q13153); assay: KINOMEscan 1 μM, PAK1; assay type: binding; conditions: 1000 nM; Entrez PAK1; read-out: Percent Control
T26 construct: purchased Eurofins DiscoverX KINOMEscan
Description: as §2

EPHB6 = target: T27, EPHB6 (Homo sapiens, UniProt O15197); assay: KINOMEscan 1 μM, EPHB6; assay type: binding; conditions: 1000 nM; Entrez EPHB6; read-out: Percent Control
T27 construct: purchased Eurofins DiscoverX KINOMEscan
Description: as §2

EGFR(G719S) = target: T28, EGFR(G719S) (Homo sapiens, UniProt P00533, G719S); assay: KINOMEscan 1 μM, EGFR(G719S); assay type: binding; conditions: 1000 nM; Entrez EGFR; read-out: Percent Control
T28 construct: purchased Eurofins DiscoverX KINOMEscan
T28 sequence (P00533 25-1210 G719S): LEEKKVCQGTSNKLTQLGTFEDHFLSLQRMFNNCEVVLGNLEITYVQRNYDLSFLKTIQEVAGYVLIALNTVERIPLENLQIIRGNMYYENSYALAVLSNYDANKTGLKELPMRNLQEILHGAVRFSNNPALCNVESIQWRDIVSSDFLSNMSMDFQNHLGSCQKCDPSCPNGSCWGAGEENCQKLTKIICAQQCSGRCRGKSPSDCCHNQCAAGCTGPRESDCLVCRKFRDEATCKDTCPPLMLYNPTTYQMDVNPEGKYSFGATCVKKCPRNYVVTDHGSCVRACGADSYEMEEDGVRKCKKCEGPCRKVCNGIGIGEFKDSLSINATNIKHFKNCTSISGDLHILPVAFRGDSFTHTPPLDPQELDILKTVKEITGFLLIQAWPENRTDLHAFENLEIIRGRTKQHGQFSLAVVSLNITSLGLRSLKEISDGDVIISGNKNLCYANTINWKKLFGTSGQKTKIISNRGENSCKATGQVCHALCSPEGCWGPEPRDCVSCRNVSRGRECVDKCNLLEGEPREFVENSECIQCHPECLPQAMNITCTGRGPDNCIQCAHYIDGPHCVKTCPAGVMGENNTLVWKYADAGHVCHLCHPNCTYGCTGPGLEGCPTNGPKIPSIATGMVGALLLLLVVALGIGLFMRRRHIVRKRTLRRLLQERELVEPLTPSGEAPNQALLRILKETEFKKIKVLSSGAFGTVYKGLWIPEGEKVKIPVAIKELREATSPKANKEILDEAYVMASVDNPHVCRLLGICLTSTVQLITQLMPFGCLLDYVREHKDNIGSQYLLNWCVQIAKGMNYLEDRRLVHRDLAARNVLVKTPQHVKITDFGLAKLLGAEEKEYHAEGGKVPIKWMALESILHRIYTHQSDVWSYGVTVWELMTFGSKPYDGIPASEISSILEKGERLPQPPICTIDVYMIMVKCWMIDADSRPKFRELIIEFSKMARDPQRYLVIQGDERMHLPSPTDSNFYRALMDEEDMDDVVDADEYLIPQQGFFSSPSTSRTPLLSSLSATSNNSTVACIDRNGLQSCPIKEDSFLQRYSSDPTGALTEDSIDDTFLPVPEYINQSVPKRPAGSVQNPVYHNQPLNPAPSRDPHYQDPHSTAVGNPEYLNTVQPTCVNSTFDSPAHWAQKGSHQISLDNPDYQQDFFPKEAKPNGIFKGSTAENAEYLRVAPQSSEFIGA
Description: as §2

LTK = target: T29, LTK (Homo sapiens, UniProt P29376); assay: KINOMEscan 1 μM, LTK; assay type: binding; conditions: 1000 nM; Entrez LTK; read-out: Percent Control
T29 construct: purchased Eurofins DiscoverX KINOMEscan
Description: as §2

PCTK3 = target: T30, PCTK3 (Homo sapiens, UniProt Q07002); assay: KINOMEscan 1 μM, PCTK3; assay type: binding; conditions: 1000 nM; Entrez CDK18; read-out: Percent Control
T30 construct: purchased Eurofins DiscoverX KINOMEscan
Description: as §2

EPHB1 = target: T31, EPHB1 (Homo sapiens, UniProt P54762); assay: KINOMEscan 1 μM, EPHB1; assay type: binding; conditions: 1000 nM; Entrez EPHB1; read-out: Percent Control
T31 construct: purchased Eurofins DiscoverX KINOMEscan
Description: as §2

With `O=C(O)c1ccc(-c2coc3ncc(-c4ccccc4)cc23)cc1Cl` [SGC-CAMKK2-1N (UNC-YL-83)] the remaining binding at 1 µM (FLT3(N841I)) was 100%, the remaining binding at 1 µM (FLT3(R834Q)) was 84% and the remaining binding at 1 µM (CDK9) was 89%. It also gave a remaining binding at 1 µM [1] of 70%, a remaining binding at 1 µM [2] of 89% and a remaining binding at 1 µM (KIT(V559D)) of 70%. The remaining binding at 1 µM (PRKR) was 90%, the remaining binding at 1 µM (IRAK4) was 72% and the remaining binding at 1 µM (PFTK1) was 100%. For the same compound, the remaining binding at 1 µM (INSRR) was 96%, the remaining binding at 1 µM (CDKL3) was 63% and the remaining binding at 1 µM (AKT2) was 85%. For the same compound, the remaining binding at 1 µM (PDGFRB) was 92%.
In the case of `Cc1cccc(-c2cnc3occ(-c4ccc(C(=O)O)c(C5CCCC5)c4)c3c2)c1` [SGC-CAMKK2-1 (YL-36)], the remaining binding at 1 µM (FLT3(D835V)) was 100%, the remaining binding at 1 µM (FYN) was 86% and the remaining binding at 1 µM (MINK) was 100%. For the same compound, the “Percent Control” value (FLT3(ITD,F691L)) was 100%, the remaining binding at 1 µM (MAP3K2) was 100% and the remaining binding at 1 µM (MAP4K4) was 85%. It also gave a remaining binding at 1 µM (MEK6) of 100%, a remaining binding at 1 µM (YANK2) of 100% and a remaining binding at 1 µM (STK33) of 98%. It also gave a remaining binding at 1 µM (EGFR(G719C)) of 55%, a remaining binding at 1 µM (MAK) of 78% and a remaining binding at 1 µM (PRKCE) of 90%. The remaining binding at 1 µM (DMPK) was 92%, the remaining binding at 1 µM (PAK1) was 82% and the remaining binding at 1 µM (EPHB6) was 43%. The remaining binding at 1 µM (EGFR(G719S)) was 77%, the remaining binding at 1 µM (LTK) was 100% and the remaining binding at 1 µM (PCTK3) was 99%. The remaining binding at 1 µM (EPHB1) was 100%.
